Reference: patent publication US8951999B2, “Compounds” (Orexo AB, priority 2009, dated 2015)

target: T1, recombinant human mPGES-1 (Homo sapiens, UniProt O14684); assay: Assay B: mPGES-1 enzyme assay (modified); format: biochemical; conditions: biological assay B (all other compounds); PGH2 final conc. 2 μM, HTRF; read-out: mPGES-1 inhibitory effect IC50
T1 sequence (O14684 1-152): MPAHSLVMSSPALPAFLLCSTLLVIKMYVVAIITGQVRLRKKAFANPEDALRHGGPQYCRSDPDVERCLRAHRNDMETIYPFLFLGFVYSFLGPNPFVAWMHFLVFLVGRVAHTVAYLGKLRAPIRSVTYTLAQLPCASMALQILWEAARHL
Procedure: Assay B: mPGES-1 Enzyme Assay (Modified)
The aim of this assay is to determine the affinity of a test compound for the mPGES-1 enzyme.
47 μl of recombinant human mPGES-1 (˜0.5 μg protein/well) containing microsomal suspension in a buffer containing GSH, (2.5 mmol/L L-Glutathione reduced, dissolved in 0.1 mol/L Phosphat Buffer pH 7.4) is dispensed in a 384-well plate and thereafter 1 μl of the test compound(s) is/are added and incubated for 25 minutes at room temperature. The enzyme reaction is started by the addition of 2 ul PGH2 (final conc. 2 μM) dissolved in water-free Diglyme. After 60 seconds the reaction is terminated by addition of a stop solution containing FeCl2 (10 μL 0.074 mol/l FeCl2). The samples are diluted between 1:25 in PBS (Phosphate Buffered Saline). 10 μl of the diluted samples are transferred to 384-well low volume plate. In order to quantify the amount of PGE2 that has been formed, a homogenous time resolved fluorescent (HTRF) detecting of PGE2 has been performed using a commercially available kit from Cisbio according to the manufactures recommendation. This HTRF-based assay has been described in detail (see: Goedken et al., J Biomol Screen, 2008, 13(7), 619-625). Briefly, the diluted samples are mixed with […] PGE2-d2 conjugate and 5 μl anti-PGE2 cryptate conjugate. After an incubation period of the plates over night, the fluorescence is measured by the use of an appropriate microplate reader.
The fluorescence of Europium cryptate (maxex=307 nm, maxem=620 nm) and d2-PGE2 (maxex=620 nm, maxem=665 nm) are measured.
The extent of the specific HTRF is measured as a ratio of the emission intensity at 665 nm vs. that at 620 nm at an excitation pulse of 320 nm. The quantification plate contains also wells with different concentrations of PGE2 as calibration curve for the calculation of the PGE2 concentrations from the HTRF ratio values.
From all mPGES enzyme assay the background is subtracted and the IC50 is calculated over a nonlinear regression with conventional software.

Compound | IC50 [nM]
Cn1cccc1C(=O)NCc1ccc(Cl)c(C(=O)Nc2ccc(OCC(F)F)c(C(=O)Nc3ccc(Br)cc3)c2)c1 [Example 167] | 47
CC(O)(C(=O)NCc1ccc(Cl)c(C(=O)Nc2ccc(OCC(F)F)c(C(=O)Nc3ccc(Br)cc3)c2)c1)C(F)(F)F (centres unmarked) [Example 166] | 8
CC(C)(C(=O)NCc1ccc(Cl)c(C(=O)Nc2ccc(OCC(F)F)c(C(=O)Nc3ccc(Br)cc3)c2)c1Cl)C(F)(F)F [Example 47, N-[4-(2,2-Difluoroethyl)oxy-3-(4-bromophenyl)aminocarbonyl-phenyl]-2,6-dichloro-3-(2,2,2-trifluoro-1,1-dimethyl-ethyl)carbonylaminomethyl-benzamide] | 6
CC(C)(C(=O)NCc1ccc(Cl)c(C(=O)Nc2ccc(OCC(F)F)c(C(=O)Nc3ccc(Br)cc3)c2)c1)C(F)(F)F [Example 81] | 2
CC(C)(C)C(=O)NCc1ccc(Cl)c(C(=O)Nc2ccc(N3CC(F)(F)C3)c(C(=O)Nc3ccc(Br)cc3)c2)c1 [Example 60, N-[4-(3,3-Difluoro-azetidin-1-yl)-3-(4-bromphenyl)aminocarbonyl-phenyl]-2-chloro-5-(tert-butylcarbonylamino)methyl-benzamide] | 26
CC1(C)CC1CNC(=O)c1cc(NC(=O)c2cc(CNC(=O)C(C)(C)C(F)(F)F)ccc2Cl)ccc1OCC(F)F (centres unmarked) [Example 107] | 5
CC1(NC(=O)c2cc(NC(=O)c3c(Cl)ccc(CNC(=O)C(C)(C)C(F)(F)F)c3Cl)ccc2OCC(F)F)CCOCC1 [Example 155] | 150
CC(C)(C(=O)NCc1ccc(Cl)c(C(=O)Nc2ccc(OCC(F)F)c(C(=O)Nc3ccc(F)c(Cl)c3F)c2)c1)C(F)(F)F [Example 134] | 7
CC1(C(=O)NCc2ccc(Cl)c(C(=O)Nc3ccc(OCC(F)F)c(C(=O)Nc4ccc(Br)cc4)c3)c2)CCCO1 (centres unmarked) [Example 163] | 6
CC(C)(C(=O)NCc1ccc(Cl)c(C(=O)Nc2ccc(OCC(F)F)c(C(=O)NC3CCc4ccccc4C3)c2)c1)C(F)(F)F (centres unmarked) [Example 85] | 6
CC(NC(=O)c1cc(NC(=O)c2cc(CNC(=O)C(C)(C)C(F)(F)F)ccc2Cl)ccc1OCC(F)F)C(F)(F)F (centres unmarked) [Example 99] | 7
CC(C)(C(=O)NCc1ccc(Cl)c(C(=O)Nc2ccc(OCC(F)F)c(C(=O)NCc3ccccc3C(F)(F)F)c2)c1)C(F)(F)F [Example 84] | 6
CC(C)(C(=O)NCc1ccc(Cl)c(C(=O)Nc2ccc(OCC(F)F)c(C(=O)NC3CCCOC3)c2)c1)C(F)(F)F (centres unmarked) [Example 123] | 48
Cc1ccc(Cl)cc1NC(=O)c1cc(NC(=O)c2cc(CNC(=O)C(C)(C)C(F)(F)F)ccc2Cl)ccc1OCC(F)F [Example 86] | 5
CC(C)(C)C(=O)NCc1ccc(F)c(C(=O)Nc2ccc(OCC(F)F)c(C(=O)N[C@H]3CC[C@H](C(F)(F)F)CC3)c2)c1F [Example 50] | 34
CC(NC(=O)c1cc(NC(=O)c2c(Cl)ccc(CNC(=O)C(C)(C)C(F)(F)F)c2Cl)ccc1OCC(F)F)C(F)(F)F (centres unmarked) [Example 159] | 7
Cc1c(CNC(=O)C(C)(C)C)ccc(Cl)c1C(=O)Nc1ccc(OCC(F)F)c(C(=O)Nc2ccc(Br)cc2)c1 [Example 51, N-[4-(2,2-Difluoroethyl)oxy-3-(4-bromophenyl)aminocarbonyl-phenyl]-6-chloro-2-methyl-3-(tert-butylcarbonylamino)methyl-benzamide] | 5
CC(C)CNC(=O)c1cc(NC(=O)c2cc(CNC(=O)C(C)(C)C(F)(F)F)ccc2Cl)ccc1OCC(F)F [Example 140] | 8
NC(C(=O)NCc1ccc(Cl)c(C(=O)Nc2ccc(OCC(F)F)c(C(=O)Nc3ccc(Br)cc3)c2)c1)C(F)(F)F (centres unmarked) [Example 174] | 8
CC(C)(C)C(=O)NCc1ccc(Cl)c(C(=O)Nc2ccc(N3CCC(C(F)(F)F)CC3)c(C(=O)N[C@H]3CC[C@H](C(F)(F)F)CC3)c2)c1 [Example 58, N-[4-(4-Trifluoromethyl-piperidin-1-yl)-3-(trans-4-trifluoromethylcyclohexyl)aminocarbonyl-phenyl]-2-chloro-5-(tert-butylcarbonylamino)methyl-benzamide] | 3
